# Experimental data as given in ChEMBL document CHEMBL3608278 (J Med Chem, 2015).
# pIC50: −log10 of the molar value.
# Assays:
# [1] = molecular target: T1, Potassium voltage-gated channel subfamily A member 3 (Homo sapiens, UniProt P22001); test: cell-based; design: species or system Blood
# [2] = molecular target: T1, Potassium voltage-gated channel subfamily A member 3; design: species or system Blood
# T1 sequence (P22001 whole entry): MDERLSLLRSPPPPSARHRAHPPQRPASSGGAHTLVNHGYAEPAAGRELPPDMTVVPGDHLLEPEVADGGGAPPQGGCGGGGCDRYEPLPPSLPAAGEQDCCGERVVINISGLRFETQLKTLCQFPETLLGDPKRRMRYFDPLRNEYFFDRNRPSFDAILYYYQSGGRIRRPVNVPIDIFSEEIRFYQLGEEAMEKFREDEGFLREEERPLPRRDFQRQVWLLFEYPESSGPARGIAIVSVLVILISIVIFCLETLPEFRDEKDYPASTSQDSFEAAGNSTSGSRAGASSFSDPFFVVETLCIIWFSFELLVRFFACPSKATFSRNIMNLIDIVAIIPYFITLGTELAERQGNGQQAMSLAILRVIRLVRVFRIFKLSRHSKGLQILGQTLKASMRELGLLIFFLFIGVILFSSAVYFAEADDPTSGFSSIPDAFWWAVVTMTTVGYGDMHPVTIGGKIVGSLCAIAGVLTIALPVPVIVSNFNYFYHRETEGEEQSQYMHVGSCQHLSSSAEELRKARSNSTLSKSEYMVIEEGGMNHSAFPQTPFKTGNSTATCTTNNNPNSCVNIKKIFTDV
SMILES,pIC50 [1],pIC50 [2]
CC[C@H](C)[C@@H]1NC(=O)[C@@H](NC(=O)[C@H](CO)NC(=O)[C@@H](N)Cc2cccc3ccccc23)CSSC[C@@H](C(=O)O)NC(=O)[C@H]([C@@H](C)O)NC(=O)CNC(=O)[C@@H]2CSSC[C@@H]3NC(=O)[C@H](CCC(N)=O)NC(=O)[C@H](Cc4ccccc4)NC(=O)[C@H](C)NC(=O)[C@H]([C@@H](C)O)NC(=O)[C@H](CSSC[C@H](NC(=O)[C@H](Cc4ccccc4)NC(=O)[C@H](CO)NC(=O)[C@H](CC(C)C)NC(=O)[C@H](CCCNC(=N)N)NC(=O)[C@H](Cc4ccc(O)cc4)NC(=O)[C@H](CCCCN)NC(=O)[C@H](CCSC)NC(=O)[C@H](CO)NC(=O)[C@H](Cc4cnc[nH]4)NC(=O)[C@H](CCCCN)NC3=O)C(=O)N[C@@H](CCCNC(=N)N)C(=O)N[C@@H](CCCCN)C(=O)N[C@@H]([C@@H](C)O)C(=O)N2)NC(=O)[C@H](CCCNC(=N)N)NC(=O)[C@H](CO)NC(=O)[C@H](CCCCN)NC(=O)[C@@H]2CCCN2C(=O)[C@H]([C@@H](C)CC)NC(=O)[C@H]([C@@H](C)O)NC(=O)[C@H](CC(=O)O)NC1=O,9.65,9.61
CC[C@H](C)[C@@H]1NC(=O)[C@@H](NC(=O)[C@H](CO)NC(=O)[C@@H](N)CCCNC(=N)N)CSSC[C@@H](C(=O)O)NC(=O)[C@H](CCC(=O)O)NC(=O)CNC(=O)[C@@H]2CSSC[C@@H]3NC(=O)[C@H](CCC(N)=O)NC(=O)[C@H](Cc4ccccc4)NC(=O)[C@H](C)NC(=O)[C@H]([C@@H](C)O)NC(=O)[C@H](CSSC[C@H](NC(=O)[C@H](Cc4ccccc4)NC(=O)[C@H](CO)NC(=O)[C@H](CC(C)C)NC(=O)[C@H](CCCNC(=N)N)NC(=O)[C@H](Cc4ccc(O)cc4)NC(=O)[C@H](CCCCN)NC(=O)[C@H](CCSC)NC(=O)[C@H](CO)NC(=O)[C@H](Cc4cnc[nH]4)NC(=O)[C@H](CCCCN)NC3=O)C(=O)N[C@@H](CCCNC(=N)N)C(=O)N[C@@H](CCCCN)C(=O)N[C@@H]([C@@H](C)O)C(=O)N2)NC(=O)[C@H](CCCNC(=N)N)NC(=O)[C@H](CO)NC(=O)[C@H](CCCCN)NC(=O)[C@@H]2CCCN2C(=O)[C@H]([C@@H](C)CC)NC(=O)[C@H]([C@@H](C)O)NC(=O)[C@H](CC(=O)O)NC1=O,,9.91
CC[C@H](C)[C@@H]1NC(=O)[C@@H](NC(=O)[C@H](CO)NC(=O)[C@@H](N)CCCNC(=N)N)CSSC[C@@H](C(=O)O)NC(=O)[C@H]([C@@H](C)O)NC(=O)CNC(=O)[C@@H]2CSSC[C@@H]3NC(=O)[C@H](CCC(N)=O)NC(=O)[C@H](Cc4ccccc4)NC(=O)[C@H](C)NC(=O)[C@H]([C@@H](C)O)NC(=O)[C@H](CSSC[C@H](NC(=O)[C@H](Cc4ccccc4)NC(=O)[C@H](CO)NC(=O)[C@H](CC(C)C)NC(=O)[C@H](C)NC(=O)[C@H](Cc4ccc(O)cc4)NC(=O)[C@H](CCCCN)NC(=O)[C@H](CCSC)NC(=O)[C@H](CO)NC(=O)[C@H](Cc4cnc[nH]4)NC(=O)[C@H](CCCCN)NC3=O)C(=O)N[C@@H](CCCNC(=N)N)C(=O)N[C@@H](CCCCN)C(=O)N[C@@H]([C@@H](C)O)C(=O)N2)NC(=O)[C@H](CCCNC(=N)N)NC(=O)[C@H](CO)NC(=O)[C@H](CCCCN)NC(=O)[C@@H]2CCCN2C(=O)[C@H]([C@@H](C)CC)NC(=O)[C@H]([C@@H](C)O)NC(=O)[C@H](CC(=O)O)NC1=O,10.35,9.73
CC[C@H](C)[C@@H]1NC(=O)[C@@H](NC(=O)[C@H](CO)NC(=O)[C@@H](N)CCCNC(=N)N)CSSC[C@@H](C(=O)O)NC(=O)[C@H]([C@@H](C)O)NC(=O)CNC(=O)[C@@H]2CSSC[C@@H]3NC(=O)[C@H](CCC(N)=O)NC(=O)[C@H](Cc4ccccc4)NC(=O)[C@H](C)NC(=O)[C@H]([C@@H](C)O)NC(=O)[C@H](CSSC[C@H](NC(=O)[C@H](Cc4ccccc4)NC(=O)[C@H](CO)NC(=O)[C@H](C)NC(=O)[C@H](CCCNC(=N)N)NC(=O)[C@H](Cc4ccc(O)cc4)NC(=O)[C@H](CCCCN)NC(=O)[C@H](CCSC)NC(=O)[C@H](CO)NC(=O)[C@H](Cc4cnc[nH]4)NC(=O)[C@H](CCCCN)NC3=O)C(=O)N[C@@H](CCCNC(=N)N)C(=O)N[C@@H](CCCCN)C(=O)N[C@@H]([C@@H](C)O)C(=O)N2)NC(=O)[C@H](CCCNC(=N)N)NC(=O)[C@H](CO)NC(=O)[C@H](CCCCN)NC(=O)[C@@H]2CCCN2C(=O)[C@H]([C@@H](C)CC)NC(=O)[C@H]([C@@H](C)O)NC(=O)[C@H](CC(=O)O)NC1=O,9.70,9.19
CC[C@H](C)[C@@H]1NC(=O)[C@@H](NC(=O)[C@H](CO)NC(=O)[C@@H](N)CCCNC(=N)N)CSSC[C@@H](C(=O)O)NC(=O)[C@H]([C@@H](C)O)NC(=O)[C@H](C)NC(=O)[C@@H]2CSSC[C@@H]3NC(=O)[C@H](CCC(N)=O)NC(=O)[C@H](Cc4ccccc4)NC(=O)[C@H](C)NC(=O)[C@H]([C@@H](C)O)NC(=O)[C@H](CSSC[C@H](NC(=O)[C@H](Cc4ccccc4)NC(=O)[C@H](CO)NC(=O)[C@H](CC(C)C)NC(=O)[C@H](CCCNC(=N)N)NC(=O)[C@H](Cc4ccc(O)cc4)NC(=O)[C@H](CCCCN)NC(=O)[C@H](CCSC)NC(=O)[C@H](CO)NC(=O)[C@H](Cc4cnc[nH]4)NC(=O)[C@H](CCCCN)NC3=O)C(=O)N[C@@H](CCCNC(=N)N)C(=O)N[C@@H](CCCCN)C(=O)N[C@@H]([C@@H](C)O)C(=O)N2)NC(=O)[C@H](CCCNC(=N)N)NC(=O)[C@H](CO)NC(=O)[C@H](CCCCN)NC(=O)[C@@H]2CCCN2C(=O)[C@H]([C@@H](C)CC)NC(=O)[C@H]([C@@H](C)O)NC(=O)[C@H](CC(=O)O)NC1=O,10.23,9.91
CC[C@H](C)[C@@H]1NC(=O)[C@@H](NC(=O)[C@H](CO)NC(=O)[C@@H](N)CCCNC(=N)N)CSSC[C@@H](C(=O)O)NC(=O)[C@H]([C@@H](C)O)NC(=O)CNC(=O)[C@@H]2CSSC[C@@H]3NC(=O)[C@H](CCC(N)=O)NC(=O)[C@H](Cc4ccccc4)NC(=O)[C@H](C)NC(=O)[C@H]([C@@H](C)O)NC(=O)[C@H](CSSC[C@H](NC(=O)[C@H](Cc4ccccc4)NC(=O)[C@H](CO)NC(=O)[C@H](CC(C)C)NC(=O)[C@H](CCCNC(=N)N)NC(=O)[C@H](Cc4ccc(O)cc4)NC(=O)[C@H](CCCCN)NC(=O)[C@H](CCSC)NC(=O)[C@H](CO)NC(=O)[C@H](Cc4cnc[nH]4)NC(=O)[C@H](CCCCN)NC3=O)C(=O)N[C@@H](CCCNC(=N)N)C(=O)N[C@@H](CCCCN)C(=O)N[C@@H]([C@@H](C)O)C(=O)N2)NC(=O)[C@H](CCCNC(=N)N)NC(=O)[C@H](CO)NC(=O)[C@H](CCCCN)NC(=O)[C@H](CCC(=O)O)NC(=O)[C@H]([C@@H](C)CC)NC(=O)[C@H]([C@@H](C)O)NC(=O)[C@H](CC(=O)O)NC1=O,,9.62
